target: Factor D (Homo sapiens, UniProt P00746); assay: Factor D esterolytic assay (Z-Lys-SBzl thioester substrate, DTNB, 405 nm); assay type: biochemical; details: substrate Z-Lys-SBzl 1.29 mM, 100 mM HEPES, 500 mM NaCl, pH 7.5, 10% DMSO, tested a minimum of three times
Method: The IC50 value of a compound (i.e., the concentration of the compound that inhibits 50% of the enzymatic activity) was calculated according to the procedure reported in U.S. Pat. No. 6,653,340 B1, e.g., column 74 (incorporated by reference).
Specifically, the compounds were dissolved in a stock solution of DMSO at 10.0 or 100 mM. A portion of this stock solution was added to assay buffer in a final volume of 50 μL. Controls included buffer alone and enzyme solutions to which DMSO was added. Substrate was added to the reaction wells immediately or after incubation at room temperature. The reaction rates were measured spectrophotometrically by the generation of product at 405 nm for 600 sec. Background absorbance at 690 nm was measured and subtracted from the absorbance at 405 nm for each well.
The reaction rate for enzyme alone was compared to the rate of enzyme in the presence of inhibitor and the percent inhibition was calculated as shown below: Percent Inhibition=[Rate without inhibitor−Rate with inhibitor)/(Rate without inhibitor)]−100 Factor D Esterolytic Assay:
An established esterolytic assay for the measurement of Factor D activity and inhibition of Factor D activity was used (Kam, C. M.; McRae, B. J.; Harper, J. W.; Niemann, M. A.; Volanakis, J. E.; Powers, J. C. Human complement proteins D. C2, and B Active site mapping with peptide thioester substrates. J Biol. Chem. 1987, 262, 3444-3451). For this assay Z-Lys-SBzl, 1.29 mM (Kim, S.; Narayana, S. V. L; Volanakis, J. E. Mutational analysis of the substrate binding site of human complement Factor D. Biochemistry, 1994, 33, 14393-14399) was used as the substrate for Factor D ([…]). Hydrolysis of this compound by Factor D liberated a free sulfhydryl group which is then reacted with 5,5′-dithiobis(2-nitrobenzoic acid) producing an intense yellow color (Habeeb, A. F. S. A. Reaction of protein sulfhydryl groups with Ellman's Reagent. Methods in Enzymol. 1976, 25, 457-464). The assays were performed in 96 well microtiter plates and rates of hydrolysis were monitored at 405 nm on a Biotek Synergy H1 plate reader. Hydrolysis rates were reported as change in mOD/min. The assay was conducted in 100 mM HEPES, 500 mM NaCl, pH 7.5 containing 10% DMSO in a final volume of 50 μL per well.
An IC50, a compound concentration which inhibits 50% of the enzymatic activity, was calculated. Compounds in the examples were tested a minimum of three times.

Sequence of Factor D (P00746 26-253): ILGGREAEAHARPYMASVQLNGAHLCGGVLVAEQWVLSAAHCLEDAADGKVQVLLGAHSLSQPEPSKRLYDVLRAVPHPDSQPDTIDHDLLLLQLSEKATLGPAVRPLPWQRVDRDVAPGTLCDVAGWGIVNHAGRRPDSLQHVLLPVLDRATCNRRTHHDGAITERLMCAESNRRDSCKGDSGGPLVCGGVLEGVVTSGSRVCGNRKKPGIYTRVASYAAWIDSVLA

Compound	IC50 [nM]
COC(=O)c1ccc2c3c(N)ncnc3n(CC(=O)N3[C@H](C(=O)Nc4cccc(Br)n4)C[C@@]4(C)C[C@@H]34)c2c1 [Compound 42a, methyl 4-amino-9-(2-((1R,3S,5R)-3-((6-bromopyridin-2-yl)carbamoyl)-5-methyl-2-azabicyclo[3.1.0]hexan-2-yl)-2-oxoethyl)-9H-pyrimido[4,5-b]indole-7-carboxylate]	< 100
Nc1ncnc2c1c1ccc(C(=O)O)cc1n2CC(=O)N1[C@@H]2C[C@@H]2C[C@H]1C(=O)Nc1cccc(Br)n1 [Compound 43a, 4-amino-9-(2-((1R,3S,5R)-3-((6-bromopyridin-2-yl)carbamoyl)-2-azabicyclo[3.1.0]hexan-2-yl)-2-oxoethyl)-9H-pyrimido[4,5-b]indole-7-carboxylic acid]	< 100
Nc1ncnc2c1c1cc(C(=O)O)ccc1n2CC(=O)N1[C@@H]2C[C@@H]2C[C@H]1C(=O)Nc1cccc(Br)n1 [Compound 44a, 4-amino-9-(2-((1R,3S,5R)-3-((6-bromopyridin-2-yl)carbamoyl)-2-azabicyclo[3.1.0]hexan-2-yl)-2-oxoethyl)-9H-pyrimido[4,5-b]indole-6-carboxylic acid]	< 100
CCOC(=O)CCc1ccc2c(c1)c1c(N)ncnc1n2CC(=O)N1[C@@H]2C[C@@H]2C[C@H]1C(=O)Nc1cccc(Br)n1 [Compound 45d, ethyl 3-(4-amino-9-(2-((1R,3S,5R)-3-((6-bromopyridin-2-yl)carbamoyl)-2-azabicyclo[3.1.0]hexan-2-yl)-2-oxoethyl)-9H-pyrimido[4,5-b]indol-6-yl)propanoate]	< 100
CCOC(=O)c1cccc2c1c1c(N)ncnc1n2CC(=O)N1[C@@H]2C[C@@H]2C[C@H]1C(=O)Nc1cccc(Br)n1 [Compound 46g, ethyl 4-amino-9-(2-((1R,3S,5R)-3-((6-bromopyridin-2-yl)carbamoyl)-2-azabicyclo[3.1.0]hexan-2-yl)-2-oxoethyl)-9H-pyrimido[4,5-b]indole-5-carboxylate]	100 to 1000
COC(=O)c1cccc2c3c(N)ncnc3n(CC(=O)N3[C@@H]4C[C@@H]4C[C@H]3C(=O)Nc3cccc(Br)n3)c12 [Compound 47g, methyl 4-amino-9-(2-((1R,3S,5R)-3-((6-bromopyridin-2-yl)carbamoyl)-2-azabicyclo[3.1.0]hexan-2-yl)-2-oxoethyl)-9H-pyrimido[4,5-b]indole-8-carboxylate]	< 100
CC(C)(C)OC(=O)Nc1ccc2c(c1)c1c(N)ncnc1n2CC(=O)N1[C@@H]2C[C@@H]2C[C@H]1C(=O)Nc1cccc(Br)n1 [Compound 48d, tert-butyl (4-amino-9-(2-((1R,3S,5R)-3-((6-bromopyridin-2-yl)carbamoyl)-2-azabicyclo[3.1.0]hexan-2-yl)-2-oxoethyl)-9H-pyrimido[4,5-b]indol-6-yl)carbamate]	< 100
N#Cc1ccc2c(c1)c1c(N)ncnc1n2CC(=O)N1[C@@H]2C[C@@H]2C[C@H]1C(=O)Nc1cccc(Br)n1 [Compound 49c, (1R,3S,5R)-2-(2-(4-amino-6-cyano-9H-pyrimido[4,5-b]indol-9-yl)acetyl)-N-(6-bromopyridin-2-yl)-2-azabicyclo[3.1.0]hexane-3-carboxamide]	< 100
Nc1ncnc2c1c1c(F)cccc1n2CC(=O)N1[C@@H]2C[C@@H]2C[C@H]1C(=O)Nc1cccc(Br)n1 [Compound 50f, (1R,3S,5R)-2-(2-(4-amino-5-fluoro-9H-pyrimido[4,5-b]indol-9-yl)acetyl)-N-(6-bromopyridin-2-yl)-2-azabicyclo[3.1.0]hexane-3-carboxamide]	100 to 1000
Nc1ncnc2c1c1cccc(F)c1n2CC(=O)N1[C@@H]2C[C@@H]2C[C@H]1C(=O)Nc1cccc(Br)n1 [Compound 51g, (1R,3S,5R)-2-(2-(4-amino-8-fluoro-9H-pyrimido[4,5-b]indol-9-yl)acetyl)-N-(6-bromopyridin-2-yl)-2-azabicyclo[3.1.0]hexane-3-carboxamide]	< 100
Nc1ncnc2c1c1ccc(Br)cc1n2CC(=O)N1[C@@H]2C[C@@H]2C[C@H]1C(=O)Nc1cccc(Br)n1 [Compound 52f, (1R,3S,5R)-2-(2-(4-amino-7-bromo-9H-pyrimido[4,5-b]indol-9-yl)acetyl)-N-(6-bromopyridin-2-yl)-2-azabicyclo[3.1.0]hexane-3-carboxamide]	< 100
Nc1ncnc2c1c1cc(C(F)(F)F)ccc1n2CC(=O)N1CC2(CC2)C[C@H]1C(=O)Nc1cccc(Br)n1 [Compound 53d, (S)-5-(2-(4-amino-6-(trifluoromethyl)-9H-pyrimido[4,5-b]indol-9-yl)acetyl)-N-(6-bromopyridin-2-yl)-5-azaspiro[2.4]heptane-6-carboxamide]	100 to 1000
COc1cccc2c3c(N)ncnc3n(CC(=O)N3[C@@H]4C[C@@H]4C[C@H]3C(=O)Nc3cccc(Br)n3)c12 [Compound 54g, (1R,3S,5R)-2-(2-(4-amino-8-methoxy-9H-pyrimido[4,5-b]indol-9-yl)acetyl)-N-(6-bromopyridin-2-yl)-2-azabicyclo[3.1.0]hexane-3-carboxamide]	< 100
Cc1cccc2c3c(N)ncnc3n(CC(=O)N3[C@H](C(=O)Nc4cccc(Br)n4)C[C@@]4(C)C[C@@H]34)c12 [Compound 55a, (1R,3S,5R)-2-(2-(4-amino-8-methyl-9H-pyrimido[4,5-b]indol-9-yl)acetyl)-N-(6-bromopyridin-2-yl)-5-methyl-2-azabicyclo[3.1.0]hexane-3-carboxamide]	< 100

More lines, now with the values ahead:

IC50 [nM]	Compound
100 to 1000	Cc1cccc2c1c1c(N)ncnc1n2CC(=O)N1[C@@H]2C[C@@H]2C[C@H]1C(=O)Nc1cccc(Br)n1 [Compound 56g, (1R,3S,5R)-2-(2-(4-amino-5-methyl-9H-pyrimido[4,5-b]indol-9-yl)acetyl)-N-(6-bromopyridin-2-yl)-2-azabicyclo[3.1.0]hexane-3-carboxamide]
< 100	COc1cccc2c1c1c(N)ncnc1n2CC(=O)N1[C@@H]2C[C@@H]2C[C@H]1C(=O)Nc1cccc(Br)n1 [Compound 57g, (1R,3S,5R)-2-(2-(4-amino-5-methoxy-9H-pyrimido[4,5-b]indol-9-yl)acetyl)-N-(6-bromopyridin-2-yl)-2-azabicyclo[3.1.0]hexane-3-carboxamide]
< 100	CC(=O)c1ccc2c(c1)c1c(N)ncnc1n2CC(=O)N1[C@@H]2C[C@@H]2C[C@H]1C(=O)Nc1cccc(Br)n1 [Compound 58c, (1R,3S,5R)-2-(2-(6-acetyl-4-amino-9H-pyrimido[4,5-b]indol-9-yl)acetyl)-N-(6-bromopyridin-2-yl)-2-azabicyclo[3.1.0]hexane-3-carboxamide]
< 100	C=Cc1ccc2c(c1)c1c(N)ncnc1n2CC(=O)N1[C@@H]2C[C@@H]2C[C@H]1C(=O)Nc1cccc(Br)n1 [Compound 59c, (1R,3S,5R)-2-(2-(4-amino-6-vinyl-9H-pyrimido[4,5-b]indol-9-yl)acetyl)-N-(6-bromopyridin-2-yl)-2-azabicyclo[3.1.0]hexane-3-carboxamide]
< 100	NC(=O)c1ccc2c(c1)c1c(N)ncnc1n2CC(=O)N1[C@@H]2C[C@@H]2C[C@H]1C(=O)Nc1cccc(Br)n1 [Compound 60c, 4-amino-9-(2-((1R,3S,5R)-3-((6-bromopyridin-2-yl)carbamoyl)-2-azabicyclo[3.1.0]hexan-2-yl)-2-oxoethyl)-9H-pyrimido[4,5-b]indole-6-carboxamide]
< 100	Nc1ccc2c(c1)c1c(N)ncnc1n2CC(=O)N1[C@@H]2C[C@@H]2C[C@H]1C(=O)Nc1cccc(Br)n1 [Compound 61a, (1R,3S,5R)—N-(6-bromopyridin-2-yl)-2-(2-(4,6-diamino-9H-pyrimido[4,5-b]indol-9-yl)acetyl)-2-azabicyclo[3.1.0]hexane-3-carboxamide]
< 100	Nc1ncnc2c1c1cc(-c3ccccc3)ccc1n2CC(=O)N1[C@@H]2C[C@@H]2C[C@H]1C(=O)Nc1cccc(Br)n1 [Compound 62c, (1R,3S,5R)-2-(2-(4-amino-6-phenyl-9H-pyrimido[4,5-b]indol-9-yl)acetyl)-N-(6-bromopyridin-2-yl)-2-azabicyclo[3.1.0]hexane-3-carboxamide]
< 100	NCc1ccc2c(c1)c1c(N)ncnc1n2CC(=O)N1[C@@H]2C[C@@H]2C[C@H]1C(=O)Nc1cccc(Br)n1 [Compound 63d, (1R,3S,5R)-2-(2-(4-amino-6-(aminomethyl)-9H-pyrimido[4,5-b]indol-9-yl)acetyl)-N-(6-bromopyridin-2-yl)-2-azabicyclo[3.1.0]hexane-3-carboxamide]

Reference: US12679843B2, “Pyrrolopyrimidine amines as complement inhibitors” (BioCryst Pharmaceuticals, Inc., priority 2020, dated 2026)
